Assays:
[1] = target: T1, soluble guanylate cyclase with a trivalent heme iron (Bos taurus, UniProt P16068); assay: Activation of soluble guanylate cyclase after oxidation of the heme iron (enzyme stored at 4° C. for about 7 days); type: biochemical, bovine; details: sGC with trivalent heme iron, prepared by storing freshly prepared enzyme at 4° C. for about 7 days
T1 construct: suitably diluted sGC enzyme solution (isolated from bovine lung); from tissue; host or cells: bovine lung
T1 sequence (P16068 1-619): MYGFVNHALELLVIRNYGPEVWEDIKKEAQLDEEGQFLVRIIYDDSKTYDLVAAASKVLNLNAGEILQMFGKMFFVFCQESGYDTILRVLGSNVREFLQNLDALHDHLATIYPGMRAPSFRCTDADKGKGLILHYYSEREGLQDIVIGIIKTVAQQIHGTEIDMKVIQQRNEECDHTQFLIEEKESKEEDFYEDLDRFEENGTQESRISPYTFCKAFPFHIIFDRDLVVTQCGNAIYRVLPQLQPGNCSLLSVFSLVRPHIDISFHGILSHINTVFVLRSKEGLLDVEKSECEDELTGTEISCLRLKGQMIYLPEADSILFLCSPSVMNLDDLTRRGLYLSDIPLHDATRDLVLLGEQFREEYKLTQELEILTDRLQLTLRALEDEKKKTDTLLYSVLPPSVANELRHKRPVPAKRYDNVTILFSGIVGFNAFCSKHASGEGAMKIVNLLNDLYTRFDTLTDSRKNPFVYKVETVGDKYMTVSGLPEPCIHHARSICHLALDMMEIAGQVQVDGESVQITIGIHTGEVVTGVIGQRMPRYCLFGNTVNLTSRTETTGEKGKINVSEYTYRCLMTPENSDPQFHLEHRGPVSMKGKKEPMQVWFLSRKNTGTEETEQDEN
T1 sequence (P19687 1-691 partner): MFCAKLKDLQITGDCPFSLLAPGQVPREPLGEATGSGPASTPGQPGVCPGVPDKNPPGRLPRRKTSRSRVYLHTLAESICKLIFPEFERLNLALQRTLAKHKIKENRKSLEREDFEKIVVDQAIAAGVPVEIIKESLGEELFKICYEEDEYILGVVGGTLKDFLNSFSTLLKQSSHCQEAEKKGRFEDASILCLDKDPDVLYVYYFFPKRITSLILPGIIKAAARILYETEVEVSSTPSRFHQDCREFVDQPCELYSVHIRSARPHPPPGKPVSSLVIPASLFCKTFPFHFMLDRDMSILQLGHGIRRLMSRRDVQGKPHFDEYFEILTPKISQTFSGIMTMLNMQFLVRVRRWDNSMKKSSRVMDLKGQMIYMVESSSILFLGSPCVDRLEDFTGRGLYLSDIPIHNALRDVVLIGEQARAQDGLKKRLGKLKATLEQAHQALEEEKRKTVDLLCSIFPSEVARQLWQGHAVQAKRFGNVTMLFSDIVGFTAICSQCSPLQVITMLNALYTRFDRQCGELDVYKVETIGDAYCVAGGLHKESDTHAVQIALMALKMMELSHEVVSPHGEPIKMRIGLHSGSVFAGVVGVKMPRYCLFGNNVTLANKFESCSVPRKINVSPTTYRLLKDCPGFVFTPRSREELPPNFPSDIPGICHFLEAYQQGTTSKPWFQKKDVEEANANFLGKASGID
Description: (§1) Soluble guanylate cyclase (sGC) catalyzes the conversion of GTP into cGMP and pyrophosphate. In the presence of nicotinamide adenine dinucleotide (NAD^+) and nicotinamide mononucleotide adenylyltransferase (NAT, EC 2.7.7.1), pyrophosphate is converted into ATP and nicotinamide mononucleotide. The ATP formed can be quantified luminometrically with the aid of a luciferase in microtiter plates.
(§2) The substance to be investigated is dissolved in DMSO and diluted with DMSO/water to a final concentration of 50 μM in the assay mixture. The DMSO concentration in the assay mixture should not exceed 5% (v/v).
(§3) 100 μl of reaction mixture should contain 50 mM TEA buffer (pH 7.4), 3 mM MgCl2, 3 mM GSH, 0.1 mM GTP, 1 mM IBMX (isobutylmethylxanthine), 0.2 mM NAD^+, 0.4 mU of NAT, suitably diluted sGC enzyme solution (isolated from bovine lung as described by P. Humbert et al., Methods of Enzymology 195, 384-391 (1991)) and the test substance or solvent (for determining the basal enzyme activity). The reaction is started by adding the sGC. The reaction mixture is incubated at room temperature for 60 min and then stopped by cooling in ice and adding 50 mM EDTA, pH 8.0. […] The relative luminescence units (RLU) can be measured in a microtiter plate luminometer.
(§4) The sGC activity is obtained after subtracting the blank RLU (incubation without enzyme) from the measured RLU. […]

[2] = target: T2, heme-free soluble guanylate cyclase (Bos taurus, UniProt P16068); assay: Activation of heme-free soluble guanylate cyclase; type: biochemical, bovine
T2 sequence (P16068 1-619): T1 sequence (P16068 1-619)
T2 sequence (P19687 1-691 partner): T1 sequence (P19687 1-691 partner)
Description: as §1, §2, §3, §4

Structure (SMILES): COc1cc(NS(=O)(=O)c2ccc(Cl)cc2)c(C(=O)Nc2ccc(S(=O)(=O)N3CCSCC3)cc2)cc1OC [2-(4-chlorophenylsulfonylamino)-4,5-dimethoxy-N-(4-(thiomorpholine-4-sulfonyl)phenyl)benzamide]
- EC50 [1]: 500 nM
- stimulation of the activity [1]: 17.6 fold
- stimulation of the activity [2]: 58.2 fold
- EC50 ([2]; read-out: affinity): 2400 nM
